Laboratory results as given in the NIST ThermoML archive (doi:10.1021/acs.jced.5b00738).
Numbers after ± are expanded uncertainties.

Assay: refractive index (Na D-line) (dimensionless)
Settings: 298.15 K; 101.33 kPa; Liquid; Standard Abbe refractometry

Row | Structure (SMILES) | refractive index
1 | CCC(C)(C)O [2-methylbutan-2-ol] | 1.40219 ± 0.001
2 | O [water] | 1.33249 ± 0.001
3 | CC(=O)CC(C)C [4-methylpentan-2-one] | 1.39327 ± 0.001
4 | CC(C)=O [acetone] | 1.35553 ± 0.001
5 | O=Cc1ccco1 [2-furaldehyde] | 1.52263 ± 0.001
